Records with an inconclusive call do not appear. Activity calls are given as the source filed them.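 How the source made its calls: active means compound lowering the normal-ribosome reporter at least twice as much as the humanized-ribosome reporter, growth loss under a set limit; inconclusive means no clear call, values can overlap the other calls; inactive means the rest.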
Test system: E. coli WT-GFP vs G2058-humanized RFP, fluorescence, 24 h
Assay: E. coli strain growth, wild-type against G2058 humanized RFP mutant – G2058 mutant RFP vs wild-type GFP, cherry-pick, two tests, dose response (AID 1035470)
[1] = E. coli WT-GFP vs G2058-humanized RFP mixed culture, total growth OD600, 24 h
[2] = measured here: G2058 humanized mutant RFP growth

Row | Structure (SMILES) | AC50 | AC50 [1] | also measured
1 | CC(C)Oc1ccc(C(CC(=O)O)NC(=O)C(Sc2ccccc2)c2ccccc2)cc1 (configuration not stated) | > 100 µM (inactive) | – | –
2 | CCC(=O)Nc1nc2c(OC)ccc(OC)c2s1 | > 100 µM (inactive) | – | –
3 | OCCN(Cc1ccccc1)Cc1ccc(F)c(F)c1 | > 100 µM (inactive) | – | –
4 | O=C(O)c1ccc(Oc2ccc([N+](=O)[O-])cc2)c([N+](=O)[O-])c1 | > 100 µM (inactive) | – | –
5 | CCn1ncc(Br)c1C(=O)Nc1ccc2c(c1)OCCO2 | > 100 µM (inactive) | – | –
6 | O=C(CSc1ccc(-c2cccnc2)nn1)N1CCCc2ccccc21 | > 100 µM (inactive) | – | –
7 | COc1ccc2cc(CO)c3cc(OC)c(OC)cc3c2c1 | – | > 100 µM | AC50 [2]: > 100 µM
8 | O=C(Nc1ccc(C(=O)Nc2ccccc2Cl)cc1)c1cccnc1 | > 100 µM (inactive) | – | AC50 [2]: 8.17 µM
9 | CC(=O)Oc1ccc(N(C(C)=O)S(=O)(=O)c2ccc(C)cc2)c2ccccc12 | > 100 µM (inactive) | > 100 µM | –
10 | O=C(c1ccc(Cl)cc1)C1CCCN(Cc2cccc3cnccc23)C1 (configuration not stated) | – | – | AC50 [2]: > 100 µM
11 | CCCc1nc2oc3c(NCCCN(C)C)ncnc3c2c2c1CCCC2 | > 100 µM (inactive) | > 100 µM | –
12 | Cc1cc(NC(=O)CCCn2cc([N+](=O)[O-])cn2)n(Cc2ccc(F)cc2)n1 | > 100 µM (inactive) | > 100 µM | –
13 | Cc1nn2c(NCc3ccccn3)cc(C(C)C)nc2c1-c1ccccc1 | – | > 100 µM | –
14 | COc1cccc(-c2ccc(SCc3ccccn3)nn2)c1 | > 100 µM (inactive) | – | –
15 | Cc1nn(-c2cccc(Cl)c2)nc1C(=O)O | > 100 µM (inactive) | > 100 µM | –
16 | CN(C)CCCN(C(=O)CCOc1ccccc1)c1nc2c(F)cccc2s1 | > 100 µM (inactive) | – | –
17 | CC(C)CNC(=O)c1cccc(NC(=O)C(C)Oc2ccccc2)c1 (configuration not stated) | > 100 µM (inactive) | – | –
18 | COc1cccc(NC(=O)c2ccc(NCCCN3CCC(C)CC3)c([N+](=O)[O-])c2)c1 | – | – | AC50 [2]: 28.4 µM
19 | N#CCC(=O)Nc1ccc(C(=O)OCC(=O)Nc2ccc3ccccc3c2)cc1 | > 100 µM (inactive) | – | –
20 | CN(CC(=O)Nc1ccc(F)cc1)C(=O)COc1ccc([N+](=O)[O-])cc1Cl | > 100 µM (inactive) | > 100 µM | –
21 | Cc1ccc(S(=O)(=O)N2CCOCC2)cc1NC(=O)COc1ccc(-c2nnco2)cc1 | > 100 µM (inactive) | – | –
22 | Nc1ccccc1C#CC(=O)c1ccccc1 | – | 49 µM | –
23 | Cc1cccc(NC(=O)c2sc3nc(-c4ccccc4)cn3c2C)n1 | > 100 µM (inactive) | > 100 µM | –

Row | Structure (SMILES) | AC50 | AC50 [1] | also measured
24 | COc1ccc(CNC(=O)c2sc3nc4c(c(C(F)(F)F)c3c2N)CCC4)cc1OC | – | – | AC50 [2]: > 100 µM
25 | COc1cccc(NC(=O)C(C)SCc2ccccc2)c1 (configuration not stated) | – | > 100 µM | –
26 | Cc1noc(C)c1NC(=O)Nc1ccc2c(c1)C(=O)N([C@@H](C)CO)C[C@@H](C)[C@H](CN(C)C(=O)Nc1ccc3c(c1)OCO3)OCCCC[C@H](C)O2 | – | > 100 µM | –
27 | C=CCN(c1ccccc1)S(=O)(=O)c1ccc(Cl)c(C(=O)OCC(=O)NCCCN2CCCC2=O)c1 | – | > 100 µM | –
28 | Cc1ccccc1OCc1nc2ccccc2n1C | > 100 µM (inactive) | – | –
29 | COCC#Cc1ccc2c(c1)O[C@H](CN(C)C(=O)c1ccccc1)[C@@H](C)CN([C@H](C)CO)S2(=O)=O | – | > 100 µM | –
30 | COc1ccc(CN2CCC3CC2c2cc(Cl)ccc23)cc1 (configuration not stated) | > 100 µM (inactive) | – | –
31 | C=CCn1c(SCc2n[nH]c(=S)n2-c2ccccc2)nnc1-c1ccccc1 | > 100 µM (inactive) | > 100 µM | –
32 | CCCN1C(=O)C(O)(c2c(C)[nH]c3ccccc23)c2ccccc21 (configuration not stated) | – | > 100 µM | –
33 | CCCCc1ccc(S(=O)(=O)Nc2ccc(C)c(NS(C)(=O)=O)c2)cc1 | > 100 µM (inactive) | – | –
34 | CC1CCCN(c2ccc(C(=O)NCCc3ccccc3)cn2)C1 (configuration not stated) | > 100 µM (inactive) | – | –
35 | CC(C)(C)C1CCC(C(=O)OCC(=O)N2CCN(C(=O)c3ccco3)CC2)CC1 (configuration not stated) | > 100 µM (inactive) | – | –
36 | O=c1[nH]c(C2CCN(S(=O)(=O)c3ccc4c(c3)OCCO4)CC2)nc2c1nnn2Cc1ccccc1F | > 100 µM (inactive) | > 100 µM | –
37 | COC(=O)c1ccc2nc(-c3cccc(Br)c3)c(Cc3ccsc3)n2c1 | > 100 µM (inactive) | – | AC50 [2]: > 100 µM
38 | Cc1ccc(CNS(=O)(=O)c2ccc3c(c2)NC(=O)CS3)cc1 | > 100 µM (inactive) | – | –
39 | CC1Cc2ccccc2N1C(=O)CN1C(=O)NC(C)(CCc2ccccc2)C1=O (configuration not stated) | – | > 100 µM | –
40 | COc1ccc(OC2C(=O)N(Cc3ccc4c(c3)OCO4)C2c2sccc2C)cc1 (configuration not stated) | > 100 µM (inactive) | > 100 µM | –
41 | CNC(=O)C[C@H]1CC[C@@H]2[C@@H](COc3ccc(NC(=O)Nc4ccc(F)c(F)c4)cc3C(=O)N2C)O1 | > 100 µM (inactive) | – | –
42 | Cc1ccc(NC(=O)c2ccc([N+](=O)[O-])o2)c(C)c1 | > 100 µM (inactive) | – | –
43 | Cc1cc(C(C)(C)C)oc1C(=O)N(CC(=O)NC1CCCC1)c1c(C)cccc1C | > 100 µM (inactive) | – | –
44 | CCCCn1c(=O)[nH]c(=O)c2c1nc(-c1ccccc1F)n2Cc1ccccc1 | > 100 µM (inactive) | > 100 µM | –
45 | O=c1c2ccccc2cnn1Cc1n[nH]c(=S)n1C1CC2CCC1C2 (configuration not stated) | > 100 µM (inactive) | > 100 µM | –
46 | Cn1ccc2cc(-c3ccc4ncnc(NCc5cccs5)c4c3)ccc21 | – | > 100 µM | –

Row | Structure (SMILES) | AC50 | AC50 [1] | also measured
47 | C=C(C)Cn1c(=O)c2c(nc3n2CC(C)CN3Cc2ccccc2)n(C)c1=O (configuration not stated) | > 100 µM (inactive) | – | –
48 | O=C1c2cccc(OCC(=O)N3CCCc4ccccc43)c2CCN1Cc1cccnc1 | > 100 µM (inactive) | > 100 µM | –
49 | Cc1cccc(N2CCN(Cc3nc(-c4ccc(F)cc4F)oc3C)CC2)n1 | > 100 µM (inactive) | > 100 µM | –
50 | CSCCC1NC(=O)N(C(C)C(=O)Nc2cc(Cl)cc(Cl)c2)C1=O (configuration not stated) | > 100 µM (inactive) | > 100 µM | AC50 [2]: 7.38 µM
51 | COc1ccc(-c2csc(NC(=O)c3ccoc3C)n2)cc1 | – | > 100 µM | –
52 | O=C(COn1nnc2ccc(C(F)(F)F)cc21)Nc1c(Cl)cccc1Cl | > 100 µM (inactive) | > 100 µM | –
53 | COc1ccc(NC(=O)c2ccc(-c3ccc([N+](=O)[O-])cc3)o2)cc1 | 9.28 µM | – | AC50 (E. coli WT-GFP vs G2058-humanized RFP mixed culture, OD600 growth, 24 h, test 1): > 100 µM; AC50 (measured here: wild-type GFP, test 1): 4.75 µM
54 | O=C(NCc1ccccc1Cl)c1ccc2c(c1)SC1=NS(=O)(=O)CCN12 | > 100 µM (inactive) | > 100 µM | –
55 | CC(=O)Oc1ccc(N(c2ccccc2)S(=O)(=O)c2ccc(C)cc2)cc1 | – | > 100 µM | –
56 | O=C(COC(=O)Cc1ccccc1F)Nc1ccc(Cl)cn1 | > 100 µM (inactive) | – | –
57 | NC(=O)c1ccsc1NC(=O)COC(=O)Cc1ccc(F)cc1 | > 100 µM (inactive) | – | AC50 [2]: > 100 µM
58 | CN(C)S(=O)(=O)c1cccc(C(=O)Nc2ccc(C(=O)Nc3cccc(S(N)(=O)=O)c3)cc2)c1 | > 100 µM (inactive) | – | –
59 | CCOC(=O)c1sc(Nc2cccc(Cl)c2)nc1C | > 100 µM (inactive) | – | –
60 | COc1ccc(OC)c(NC(=O)COc2ccc(S(=O)(=O)NC(C)C)cc2)c1 | – | > 100 µM | –
61 | c1ccc(CSCc2ccccc2)cc1 | – | – | AC50 [2]: > 100 µM
62 | COc1cccc(SCC(=O)N2CCN(c3ccccc3)CC2)c1 | – | > 100 µM | –
63 | CC(C)Nc1nnc(SCC(=O)Nc2sccc2C#N)s1 | > 100 µM (inactive) | – | –
64 | CC1(C(=O)NS(=O)(=O)c2cccc(Cl)c2)CCN1C(=O)C1(c2ccc(Cl)cc2)CCC1 (configuration not stated) | > 100 µM (inactive) | – | –
65 | CCOC(=O)c1ccc(CC(=O)c2oc3cc(O)ccc3c2C)o1 | > 100 µM (inactive) | – | –
66 | Cn1nc(C(=O)Nc2cccc(S(=O)(=O)N3CCCCC3)c2)c2ccccc2c1=O | > 100 µM (inactive) | > 100 µM | –
67 | COc1cccc(-c2ccc(NC(=O)C3CCCN(Cc4cnn(C(C)C)c4)C3)cc2)c1 (configuration not stated) | > 100 µM (inactive) | – | –
68 | Cc1cc(C)n2nc(C(=O)Nc3cccc(S(=O)(=O)N(C)c4ccccc4)c3)nc2n1 | > 100 µM (inactive) | – | –

Source: PubChem BioAssay AID1035470 (Broad Institute, 2014)
